Data: patent US20120152149A1, “USE OF 1,3-DIOLS AS BIOCIDES” (BASF SE, priority 2009, published 2012)
Read-outs that look alike come from different tables or passages of the source.

Key:
Assay type in all cases: cell-based
[1] = system: A. niger IMI 149007; assay: Microstatic activity, MIC in tryptone soy broth; conditions: Aspergillus niger, IMI149007, 120 h, 25° C., 5 days
Outline: (§1)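 Diols dissolved at 40 wt% in propylene glycol at 60 °C, diluted in tryptone soy broth to 400 000–3125 ppm, then inoculated (0.1 ml organism per 5 ml). Bacteria incubated 48 h at 30 °C, fungi 5 days at 25 °C. MIC taken as a range between the last concentration showing visible growth/clouding and the first without.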

[2] = system: C. albicans NCPF 3179; assay: Microstatic activity, MIC in tryptone soy broth; conditions: Candida albicans, NCPF3179, 120 h, 25° C., 5 days
Outline: as §1

[3] = system: E. coli NCIMB 8545; assay: Microstatic activity, MIC in tryptone soy broth; conditions: Escherichia coli, NCIMB8545, 30° C., 48 hours
Outline: as §1

[4] = system: P. aeruginosa NCIMB 10421; assay: Microstatic activity, MIC in tryptone soy broth; conditions: Pseudomonas aeruginosa, NCIMB10421, 30° C., 48 hours, lower limit of MIC range, read-out: MIC value (ppm of diol), from
Outline: as §1

[5] = system: P. vulgaris NCIMB 4175; assay: Microstatic activity, MIC in tryptone soy broth; conditions: Proteus vulgaris, NCIMB4175, 30° C., 48 hours
Outline: as §1

[6] = system: S. aureus NCIMB 9578; assay: Microstatic activity, MIC in tryptone soy broth; conditions: Staphylococcus aureus, NCIMB9578, 30° C., 48 hours
Outline: as §1

[7] = system: series of tested microorganisms (bacteria and fungi); assay: Microstatic activity, highest MIC from the series of tested microorganisms; conditions: highest measured MIC from the series of tested microorganisms; lower limit; read-out: Maximum MIC value (ppm of diol), from
Outline: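 Diol tested for biocidal effect against a panel of bacteria and fungi; MIC taken as lowest concentration visibly hindering growth versus diol-free sample. Each MIC is a range between the next higher positive-test concentration and the first negative-test concentration; the series value is the highest MIC across organisms.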

[8] = system: A. niger ATCC 16404; assay: Preservation stress test, example formulation 1 (standard emulsion O/W); conditions: 1% active substance
Outline: (§2)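 O/W emulsion containing 1% diol (water as placebo), inoculated individually or as mixed culture at 10^5-10^6 CFU/g and held 28 d at 20-25° C. Surviving counts at 0, 2, 7, 14 and 28 d after dilution in neutralising phosphate buffer pH 7.4 with Tween 80/lecithin; expressed as log reduction from initial count.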

[9] = system: C. albicans ATCC 10231; assay: as above; conditions: 1% active substance
Outline: as §2

[10] = system: E. coli ATCC 10536; assay: Preservation stress test, example formulation 2 (roll-on deodorant formulation); conditions: 1% active substance
Description: (§3) Preservation stress tests (PSTs) were carried out in order to determine the preserving activity of the diols. In the preservation stress test, this is simulated through artificial loadings with microorganisms. These can either be inoculated as mixed population or individually in mixtures independent of one another. The inoculated product samples are incubated under defined conditions and, after defined times, samples are taken in order to determine the germ loading. In the case of adequate preservation, the number of microorganisms should, depending on the type, either decrease or remain constant in order to satisfy the requirements specified, e.g. in Ph. Eur. 6.0. To investigate the preserving effect of the diols, application-typical amounts of the diols were incorporated into example formulations. […] [table] These example formulations were used to prepare various mixtures which each comprised 1% active substance or comprised water instead of the active substance as placebo mixtures. These mixtures were in each case inoculated with the test germs such that a germ loading of 10^5-10^6 CFU/g was present in the test mixture. The bacteria were either used individually for the inoculation or as a mixed culture. To determine the starting germ count, immediately after inoculation, an aliquot was taken, diluted in dilution medium (phosphate buffer, 0.07 molar pH 7.4 (+/−0.2), with 1% Tween 80+0.3% soya lecithin), and the surviving germ count was determined in the dilution stages 10^−1 to 10^−3. The inoculated product samples then incubated for a total of 28 d at 20-25° C. After 2 d, 7 d, 14 d and after 28 d, aliquots were taken and diluted in dilution medium (phosphate buffer, 0.07 molar pH 7.4 (+/−0.2), with 1% Tween 80+0.3% soya lecithin). The surviving germ counts were determined in the dilution stages 10^−1 to 10^−4. The reference point taken for determining the reduction in germ count was the respective initial value of the sample. The results were given as logarithmic reductions.

[11] = system: P. aeruginosa ATCC 15442; assay: as above; conditions: 1% active substance
Description: as §3

[12] = system: S. aureus ATCC 6538; assay: as above; conditions: 1% active substance
Description: as §3

[13] = lower limit of MIC range, read-out: MIC value (ppm of diol), from
[14] = upper limit of MIC range, read-out: MIC value (ppm of diol), to

MIC [1, 13]: > 6.25 mg/mL | MIC [1, 14]: ≤ 12.5 mg/mL | MIC [2, 13]: > 6.25 mg/mL | MIC [2, 14]: ≤ 12.5 mg/mL | MIC [3, 13]: > 50 mg/mL | MIC [3, 14]: ≤ 100 mg/mL | MIC [4]: > 100 mg/mL | MIC [5, 13]: > 25 mg/mL | MIC [5, 14]: ≤ 50 mg/mL | MIC [6, 13]: > 50 mg/mL | MIC [6, 14]: ≤ 100 mg/mL | MIC [7]: > 100 mg/mL
SMILES: CCCCCC(CO)(CO)CCC [PPPD, 2-pentyl-2-propylpropane-1,3-diol]
Microbicidal activity given as logarithmic reduction in germ count ([8]; 48 h): 0 log. Red. | Microbicidal activity given as logarithmic reduction in germ count ([8]; 7 d): 1 log. Red. | Microbicidal activity given as logarithmic reduction in germ count ([8]; 14 d): 1 log. Red. | Microbicidal activity given as logarithmic reduction in germ count ([8]; 28 d): 1 log. Red. | Microbicidal activity given as logarithmic reduction in germ count ([9]; 48 h): ≧3 log. Red. | Microbicidal activity given as logarithmic reduction in germ count ([9]; 7 d): 5 log. Red. | Microbicidal activity given as logarithmic reduction in germ count ([9]; 14 d): 5 log. Red. | Microbicidal activity given as logarithmic reduction in germ count ([9]; 28 d): 5 log. Red. | Microbicidal activity given as logarithmic reduction in germ count ([10]; 48 h): ≧3 log. Red. | Microbicidal activity given as logarithmic reduction in germ count ([10]; 7 d): 5 log. Red. | Microbicidal activity given as logarithmic reduction in germ count ([10]; 14 d): 5 log. Red. | Microbicidal activity given as logarithmic reduction in germ count ([10]; 28 d): 5 log. Red. | Microbicidal activity given as logarithmic reduction in germ count ([11]; 48 h): 5 log. Red. | Microbicidal activity given as logarithmic reduction in germ count ([11]; 7 d): 5 log. Red. | Microbicidal activity given as logarithmic reduction in germ count ([11]; 14 d): 5 log. Red. | Microbicidal activity given as logarithmic reduction in germ count ([11]; 28 d): 5 log. Red. | Microbicidal activity given as logarithmic reduction in germ count ([12]; 48 h): 5 log. Red. | Microbicidal activity given as logarithmic reduction in germ count ([12]; 7 d): 5 log. Red. | Microbicidal activity given as logarithmic reduction in germ count ([12]; 14 d): 5 log. Red. | Microbicidal activity given as logarithmic reduction in germ count ([12]; 28 d): 5 log. Red.
